In patent US7105679B2, “Heteroatom containing tetracyclic derivatives as selective estrogen receptor modulators” (priority 2001, dated 2006):
Values joined by “and” are separate entries in the source; they are usually repeats but may differ in a detail not shown here. Equal values may be shown once.

How the values were obtained:
[1] = target: T1, human estrogen receptor α (Homo sapiens, UniProt P03372); experiment: Estrogen Receptor α Flash Plate Assay (binding of radiolabeled estrogen); details: flash plate binding, 0.5 nM radiolabeled estrogen; number in brackets = No. of determinations; NA = no detected activity at test concentration; read-out: Estrogen Receptor α in μM (No.)
T1 construct: purchased Panvera
T1 sequence (P03372 1-595): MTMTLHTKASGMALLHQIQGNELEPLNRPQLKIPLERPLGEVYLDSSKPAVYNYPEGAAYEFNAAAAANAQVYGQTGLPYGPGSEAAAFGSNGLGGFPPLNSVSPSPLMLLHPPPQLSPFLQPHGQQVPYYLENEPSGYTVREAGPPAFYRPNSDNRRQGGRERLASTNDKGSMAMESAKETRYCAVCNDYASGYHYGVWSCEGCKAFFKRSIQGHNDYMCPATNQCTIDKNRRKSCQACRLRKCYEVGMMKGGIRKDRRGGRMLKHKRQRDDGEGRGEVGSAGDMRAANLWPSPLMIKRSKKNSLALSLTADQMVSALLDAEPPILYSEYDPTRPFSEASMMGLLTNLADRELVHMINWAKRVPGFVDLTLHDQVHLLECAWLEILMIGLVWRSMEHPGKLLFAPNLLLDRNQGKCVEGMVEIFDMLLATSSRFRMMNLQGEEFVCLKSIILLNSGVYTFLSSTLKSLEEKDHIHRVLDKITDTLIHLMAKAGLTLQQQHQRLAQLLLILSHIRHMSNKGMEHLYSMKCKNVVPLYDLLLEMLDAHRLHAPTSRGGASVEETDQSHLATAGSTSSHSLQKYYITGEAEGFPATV
Protocol: This assay monitors binding of radiolabeled estrogen to the estrogen receptor. It is performed on a BioMek 2000 (Beckman). Plates are read in a scintillation counter (Packard TopCount), with decreased counts an indication of binding of a compound to the receptor.
The plate was sealed and incubated at 4° C. overnight.
On day two, each well was washed three times with 200 μL PBS, pH 7.2, at room temperature. To each well was then added 98 μL radiolabeled estrogen (0.5 nM, which equals 6 nCi for a 120 Ci/mmol batch, Amersham), diluted in ESB and 5 mM dithiothreitol (DTT). To individual wells were then added 2.5 μL test compound diluted in 30% (v/v) dimethyl sulfoxide/50 mM HEPES, pH 7.5. The wells were mixed three times by aspiration, the plate sealed and incubated at room temperature for one hour. The wells were then counted for 1 min in a TopCount scintillation counter (Packard).

MCF-7 cells = experiment: MCF-7 Cell Proliferation Assay (14C-thymidine, agonist and antagonist mode); format: cell-based; details: number in brackets = number of tests, NA = no detected activity at test concentration
Protocol: This assay was run according to the procedure described by Welshons, et al., (Breast Cancer Res. Treat., 1987, 10(2), 169-75), with minor modification.
Briefly, MCF-7 cells (from Dr. C. Jordan, Northwestern University) were maintained in RPMI 1640 phenol red free medium (Gibco) in 10% FBS (Hyclone), supplemented with bovine insulin and non-essential amino acid (Sigma). The cells were initially treated with 4-hydoxyltamoxifen (10^−8 M) and let stand at 37° C. for 24 hours. Following this incubation with tamoxifen, the cells were treated with compounds at various concentrations.
Compounds to be tested in the agonist mode were added to the culture media at varying concentrations. Compounds to be treated in the antagonist mode were prepared similarly, and 10 nM 17β-estradiol was also added to the culture media. The cells were incubated for 24 hours at 37° C. Following this incubation, 0.1 μCi of ^14C-thymidine (56 mCi/mmol, Amersham) was added to the culture media and the cells were incubated for an additional 24 hours at 37° C. The cells were then washed twice with Hank's buffered salt solution (HBSS) (Gibco) and counted with a scintillation counter. The increase in the ^14C-thymidine in the compound treated cells relative to the vehicle control cells were reported as percent increase in cell proliferation.

Ishikawa cells = experiment: Alkaline Phosphatase Assay in Human Endometrial Ishikawa Cells (agonist and antagonist mode); format: cell-based; details: antagonist mode with 10 nM 17β-estradiol, number in brackets = number of tests, NA = no detected activity at test concentration
Protocol: This assay was run according to the procedure described by Albert et a., Cancer Res, […], 50(11), 330-6-10, with minor modification.
Ishikawa cells (from ATCC) were maintained in DMEM/F12 (1:1) phenol red free medium (Gibco) supplemented with 10% calf serum (Hyclone). 24 hours prior to testing, the medium was changed to DMEM/F12 (1:1) phenol red free containing 2% calf serum.
Compounds to be tested in the agonist mode were added to the culture media at varying concentrations. Compounds to be treated in the antagonist mode were prepared similarly, and 10 nM 17β-estradiol was also added to the culture media. The cells were then incubated at 37° C. for 3 days. On the fourth day, the media was remove, 1 volume of 1× Dilution Buffer (Clontech) was added to the well followed by addition of 1 volume of Assay Buffer (Clontech). The cells were then incubated at room temperature for 5 minutes. […] The cells were incubated at room temperature for 10 minutes and then quantified on a luminometer. The increase of chemiluminescence over vehicle control was used to calculate the increase in alkaline phosphatase activity.

[2] = antagonist mode with 10 nM 17β-estradiol
[3] = Homo sapiens, MCF7, antagonist mode with 10 nM 17β-estradiol

Which IC50 [1] does the source give for CN(C)CCOc1ccc(C2Oc3cc(O)ccc3C3=C2c2ccccc2OCC3)cc1 (single isomer, unassigned) [Compound 147] here?
Its IC50 is 0.18 µM.

And the IC50 (MCF-7 cells; [2])?
The IC50 was over 10 µM.

What about the IC50 (Ishikawa cells) of the same molecule?
Its IC50 is over 10 µM.

How did the IC50 [1] turn out when CN(C)CCOc1ccc(C2Oc3cc(O)ccc3C3=C2c2ccccc2OCC3)cc1 (single isomer, unassigned) [Compound 149] was run?
Its IC50 is 0.015 µM.

And the IC50 (MCF-7 cells; [2])?
The IC50 was 1.36 µM.

And the IC50 (Ishikawa cells)?
The IC50 was 1.02 µM.

For Oc1ccc2c(c1)OCCC1=C2C(c2ccc(OCCN3CCCCCC3)cc2)Oc2ccccc21 (single isomer, unassigned) [Compound 152], which IC50 [1] is on record?
The IC50 was 0.0086 µM.

And the IC50 (MCF-7 cells; [2])?
Its IC50 is 2.61 µM.

What about the IC50 (Ishikawa cells) of the same molecule?
Its IC50 is 0.324 µM.

What does the source list for Oc1ccc2c(c1)OCCC1=C2C(c2ccc(OCCN3CCCCCC3)cc2)Oc2ccccc21 (single isomer, unassigned) [Compound 153]?
IC50 [1]: 0.0066 µM; IC50 (MCF-7 cells; [2]): 1.27 µM; IC50 (Ishikawa cells): 0.509 µM

What does the source list for Oc1ccc2c(c1)OC(c1ccc(OCCN3CCCCCC3)cc1)C1=C2CCOc2ccccc21 (single isomer, unassigned) [Compound 154]?
IC50 [1]: 0.0042 µM; IC50 (MCF-7 cells; [2]): 1.44 µM; IC50 (Ishikawa cells): 0.167 µM

For Oc1ccc2c(c1)OC(c1ccc(OCCN3CCCCCC3)cc1)C1=C2CCOc2ccccc21 (single isomer, unassigned) [Compound 155], which IC50 [1] is on record?
The IC50 was 0.088 µM.

And the IC50 (MCF-7 cells; [2])?
The IC50 was over 10 µM.

What about the IC50 (Ishikawa cells) of the same molecule?
The IC50 was 3.77 µM.

How did the IC50 [1] turn out when CC(C)N(CCOc1ccc(C2Oc3cc(O)ccc3C3=C2c2ccc(O)cc2OCC3)cc1)C(C)C (single isomer, unassigned) [Compound 167] was run?
Its IC50 is 0.007 µM.

What about the IC50 (MCF-7 cells; [2]) of the same molecule?
Its IC50 is 0.424 µM.

What about the IC50 (Ishikawa cells) of the same molecule?
The IC50 was 0.035 µM.

For CC(C)N(CCOc1ccc(C2Oc3cc(O)ccc3C3=C2c2ccc(O)cc2OCC3)cc1)C(C)C (single isomer, unassigned) [Compound 168], which IC50 [1] is on record?
Its IC50 is 0.0042 µM.

What about the IC50 (MCF-7 cells; [2]) of the same molecule?
Its IC50 is 0.22 µM.

And the IC50 (Ishikawa cells)?
The IC50 was 0.287 µM.

Which results are given for c1ccc2c(c1)OC(c1ccc(OCCN3CCCCC3)cc1)C1=C2COc2ccccc21 (single isomer, unassigned) [Compound 170, 5R*-(−)-1-{2-[4-(5,11-Dihydro-chromeno[4,3-c]chromen-5-yl)-phenoxy]-ethyl}-piperidine]?
IC50 [1]: 0.16 µM; IC50 (MCF-7 cells; [2]): ≥ 10 µM; IC50 (Ishikawa cells): 2.66 µM

With CC(C)(C)C(=O)Oc1ccc2c(c1)OCC1=C2C(c2ccc(OCCN3CCCCC3)cc2)Oc2ccccc21 (single isomer, unassigned) [Compound 171, 2,2-Dimethyl-propionic acid 5S*-(+)-[4-(2-piperidin-1-yl-ethoxy)-phenyl]-5,11-dihydro-chromeno[4,3-c]chromen-2-yl ester] as the molecule, how does the IC50 [1] read?
Its IC50 is 0.14 µM.

And the IC50 (MCF-7 cells; [2])?
The IC50 was 5.1 µM.

What about the IC50 (Ishikawa cells; Homo sapiens) of the same molecule?
Its IC50 is 0.0567 µM.

CC(C)(C)C(=O)Oc1ccc2c(c1)OCC1=C2C(c2ccc(OCCN3CCCCC3)cc2)Oc2ccccc21 (single isomer, unassigned) [Compound 172, 2,2-Dimethyl-propionic acid 5R*-(−)-[4-(2-piperidin-1-yl-ethoxy)-phenyl]-5,11-dihydro-chromeno[4,3-c]chromen-2-yl ester] was tested. Which IC50 [1] did it give?
Its IC50 is 0.26 µM.

What about the IC50 (MCF-7 cells; [2]) of the same molecule?
The IC50 was 2.28 µM.

And the IC50 (Ishikawa cells)?
Its IC50 is 0.0684 µM.

What does the source list for COc1ccc2c(c1)O[C@@H](c1ccc(OCCN3CCCCC3)cc1)C1=C2COc2cc(OC)ccc21 (single isomer, unassigned) [Compound 173, 5S*-(+)-1-{2-[4-(2,8-Dimethoxy-5,11-dihydro-chromeno[4,3-c]chromen-5-yl)-phenoxy]-ethyl}-piperidine]?
IC50 [1]: 0.17 µM; IC50 (MCF-7 cells; [3]): > 10 µM; IC50 (Ishikawa cells; Homo sapiens): > 10 µM

How did the IC50 [1] turn out when COc1ccc2c(c1)OCC1=C2C(c2ccc(OCCN3CCCCC3)cc2)Oc2cc(OC(=O)C(C)(C)C)ccc21 (single isomer, unassigned) [Compound 175] was run?
Its IC50 is 0.66 µM.

What about the IC50 (MCF-7 cells; [3]) of the same molecule?
Its IC50 is 5 µM.

And the IC50 (Ishikawa cells; Homo sapiens)?
Its IC50 is 0.3 µM.

What does the source list for Oc1ccc2c(c1)OCCC1=C2C(c2ccc(OCCN3CCCCCC3)cc2)Oc2cc(F)ccc21 (single isomer, unassigned) [Compound 177]?
IC50 [1]: 0.04 µM; IC50 (MCF-7 cells; [2]): 3 µM; IC50 (Ishikawa cells): 0.259 µM

Which results are given for Oc1ccc2c(c1)OCCC1=C2C(c2ccc(OCCN3CCCCCC3)cc2)Oc2cc(F)ccc21 (single isomer, unassigned) [Compound 178]?
IC50 [1]: 0.0064 µM and 0.0076 µM; IC50 (MCF-7 cells; [2]): 1.48 µM; IC50 (Ishikawa cells): 0.125 µM
